In patent publication US20230059747A1, “A COOLING PREPARATION” (SYMRISE AG, priority 2019, published 2023):

How the values were obtained:
[1] = tested on: panel of 5 experienced testers; test: Long lasting cooling sensation: panel evaluation of toothpaste compositions; assay type: in vivo, human; settings: added to standard toothpaste
Description: Phenylalkennals and homovanillic acid esters were added alone and in combination to a standard toothpaste composition. A panel of 5 experienced testers evaluated the compositions with regard to initial cooling effect during brushing, directly after brushing and the long last effect after 5 and after 10 minutes. The evaluation was done according to a score card from 1=almost no cooling effect to 10=strong cooling sensation. Example 1 is according to the invention, examples C1 to C3 serve for comparison.

rat eyes = settings: cited from earlier work

Structure (SMILES) | Cooling sensation during and directly after brushing (in words) [1] | Long lasting cooling sensation after 5 and after 10 minutes (in words) [1] | Pain sensation in rat eyes (assessment in words) (rat eyes)
C/C=C(/C=O)c1ccccc1 [Phenylbutenal, 2-Phenyl-but-2-enal] | improves the cooling sensation during and directly after brushing | does not have any long lasting effect | –
COC(=O)Cc1ccc(O)c(OC)c1 [methyl ester of homovanillic acid] | – | – | active
CCCCCCCCCCCCOC(=O)Cc1ccc(O)c(OC)c1 [dodecyl ester of homovanillic acid] | – | – | active
CCCCCCCCCOC(=O)Cc1ccc(O)c(OC)c1 [nonyl ester of homovanillic acid] | – | – | active
CCCOC(=O)Cc1ccc(O)c(OC)c1 [II-17, Propyl-2-(4-hydroxy-3-methoxyphenyl) acetate] | – | – | active
CCCCCCCCOC(=O)Cc1ccc(O)c(OC)c1 [octyl ester of homovanillic acid] | – | – | active
